Tests used:
[1] = target: T1, primase (pRN1 primase, residues 40-370) (Saccharolobus islandicus, UniProt Q54324); assay: solid-state hPH NMR; assay type: binding; conditions: with DNA^CT; triphosphate at NTP^S site
T1 construct: Catalytic domain, linker and helix bundle domain, residues 40-370; C-terminal His6 without cleavage site; E. coli BL21(DE3) CodonPlus, pET28c

[2] = target: T2, HBD (helix bundle domain) of pRN1 primase (Saccharolobus islandicus, UniProt Q54324); assay: solution NMR; assay type: binding
T2 construct: Helix bundle domain 261-370 plus linker 256-260; residual GHM (253-255) after TEV cleavage of N-terminal His6; E. coli BL21(DE3) CodonPlus, pET28c

[3] = target: T3, primase (pRN1 primase, residues 40-370) (Saccharolobus islandicus, UniProt Q54324, H145A); assay: solid-state hPH NMR (also NHHP, CHHP); assay type: binding; conditions: with DNA^CT and ATP^N, 309 K; NTP^S site
T3 construct: Catalytic domain, linker and helix bundle domain, residues 40-370; C-terminal His6 without cleavage site; E. coli BL21(DE3) CodonPlus, pET28c

pRN1 primase H145A = target: T4, pRN1 primase H145A (Sulfolobus islandicus plasmid pRN1, UniProt Q54324 40-370, H145A); assay: NMR (solid-state hPH, NHHP, CHHP); ATPN + dGTPC; 25 mM sodium phosphate, 50 mM NaCl, 10 mM MgCl2, pH 7.0; ITC and HBD NMR 298 K, primase NMR 313 K; conditions: protein: recombinant; tags: C-terminal His6, not cleaved; single strand
T4 sequence: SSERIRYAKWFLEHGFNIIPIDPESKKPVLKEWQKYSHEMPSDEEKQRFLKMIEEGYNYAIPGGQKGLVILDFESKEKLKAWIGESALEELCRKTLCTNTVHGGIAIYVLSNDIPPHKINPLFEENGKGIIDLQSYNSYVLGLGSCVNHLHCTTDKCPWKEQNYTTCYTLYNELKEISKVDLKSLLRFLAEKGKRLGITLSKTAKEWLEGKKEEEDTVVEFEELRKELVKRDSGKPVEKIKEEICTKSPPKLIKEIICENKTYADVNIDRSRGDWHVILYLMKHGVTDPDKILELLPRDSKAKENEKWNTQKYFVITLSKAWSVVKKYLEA

[4] = target: T5, pRN1 primase helix bundle domain (HBD) (Sulfolobus islandicus plasmid pRN1, UniProt Q54324 256-370); assay: ITC; 1 mM dGTP, 10 mM Mg2+; Kd not printed in the material; 25 mM sodium phosphate, 50 mM NaCl, 10 mM MgCl2, pH 7.0; ITC and HBD NMR 298 K, primase NMR 313 K; conditions: protein: recombinant; tags: non-native GHM (numbered 253-255) left after TEV cleavage of N-terminal His6; single strand
T5 sequence: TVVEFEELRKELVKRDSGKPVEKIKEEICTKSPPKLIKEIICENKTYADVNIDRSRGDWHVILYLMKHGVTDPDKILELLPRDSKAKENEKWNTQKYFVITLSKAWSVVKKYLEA

T1 sequence (Q54324 entry or part of it): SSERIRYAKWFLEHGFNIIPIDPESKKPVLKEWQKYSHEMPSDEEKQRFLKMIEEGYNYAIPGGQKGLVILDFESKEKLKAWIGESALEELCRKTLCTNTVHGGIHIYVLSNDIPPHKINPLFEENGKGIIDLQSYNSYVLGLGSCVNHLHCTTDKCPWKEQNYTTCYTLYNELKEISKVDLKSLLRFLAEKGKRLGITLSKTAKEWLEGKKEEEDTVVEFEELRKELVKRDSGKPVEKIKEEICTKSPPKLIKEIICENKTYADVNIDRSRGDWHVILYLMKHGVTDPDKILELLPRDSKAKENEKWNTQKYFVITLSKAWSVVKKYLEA

With Nc1nc2c(ncn2[C@H]2C[C@H](O)[C@@H](COP(=O)(O)O[C@H]3[C@@H](O)[C@H](n4cnc5c(N)ncnc54)O[C@@H]3COP(=O)(O)OP(=O)(O)NP(=O)(O)O)O2)c(=O)[nH]1 the “solid-state hPH NMR” value [1] was “the solid-state hPH NMR spectrum of the primase-DNA^CT-pNHppApG complex”.

In the case of Nc1ncnc2c1ncn2[C@@H]1O[C@H](COP(=O)(O)OP(=O)(O)OP(=O)(O)O)[C@@H](O)[C@H]1O [ATP], the “solution NMR” value ([2]; with DNA^CT and dGTP, NTP^W site (displaced from NTP^S site by dGTP)) is reported as “the second ATP remains bound at the NTP^W site without base-pairing with T2”.

In the case of Nc1nc2c(ncn2[C@H]2C[C@H](O)[C@@H](COP(=O)(O)OP(=O)(O)OP(=O)(O)O)O2)c(=O)[nH]1 [dGTP], the “solution NMR” value ([2]; with DNA^CT and ATP, NTP^S site) is reported as “dGTP displaces ATP at the NTP^S site to base-pair with C1”.

In the case of Nc1nc2c(ncn2[C@H]2C[C@H](O)[C@@H](COP(=O)(O)OP(=O)(O)CP(=O)(O)O)O2)c(=O)[nH]1 [dGTP^C], the “solid-state hPH NMR (also NHHP, CHHP)” value [3] is reported as “ATP^N binds at the NTP^W site, while dGTP^C occupies the NTP^S site”.

CTGTGCTCA (ssDNA) [DNACT] was tested, and the binding result (pRN1 primase H145A) was “binds” and the binding signal [4] was ~5 fold tighter GTG recognition than with ATP.

From article PMC13469122, “Structural and mechanistic insights into primer synthesis initiation by DNA primase” (Nature Communications, 2026)
